The text below walks through data of article PMC5913254, “A novel in vitro metric predicts in vivo efficacy of inhaled silver-based antimicrobials in a murine Pseudomonas aeruginosa pneumonia model” (Scientific Reports, 2018).

SMILES strings stand for the structures. Several values for one entry are separate records, joined by “and”; a condition that tells them apart may be missing. Identical values can stand only once.

As a reminder, the MBC is the lowest tested concentration that kills the bacteria rather than only halting them. A lower MBC goes with more potent killing. Usually MIC stands for the lowest concentration that inhibits growth of the organism. Low values mean a more susceptible organism, high ones a less susceptible organism.

The test system of data set [1] is immortalized human bronchial epithelial cells (16HBE). The data set can be described thus: alamarBlue cytotoxicity assay against 16HBE cells (in vitro LD50). In kind it is cell-based. The following applies: 24 h. The procedure:
(§1) 16HBEs (16HBE14o-), generously provided by Dr. D. Gruenert (University of California, San Francisco, CA) are a human bronchial epithelial cell line transformed with SV40 large T-antigen using the replication-defective pSVori plasmid. 16HBEs were used as a model to determine the relative toxicities of the SCCs to airway cells. Cells between passages 20 to 35 were cultured in Minimum Essential Medium with Earle’s Balanced Salts (Sigma Aldrich) and non-essential amino acids supplemented with penicillin-streptomycin (1%), L-glutamine (1%), and foetal bovine serum (10%). Additionally, primary human dermal fibroblasts (HDFs) were also utilized for in vitro toxicity studies. HDFs at passage 4 were generously donated by Carol Tamminga, M.D. (University of Texas Southwestern Medical Center, Dallas, TX). HDFs were cultured in Dulbecco’s Modified Eagle Medium (Sigma Aldrich) supplemented with penicillin-streptomycin (1%), L-glutamine (1%), and foetal bovine serum (10%) and were utilized between passage 7 to 14 for in vitro toxicity studies. 16HBE and HDF cultures were assessed for bacterial contamination visually, while mycoplasma contamination was assessed both visually and through a PCR-based Universal Mycoplasma Detection Kit assay (ATCC® 30-1012K^TM).
(§2) 16HBEs and HDFs grown to confluency (90–95%) as described above were sub-cultured, re-suspended in the appropriate medium, and seeded in wells of clear 96-well plate(s) at either 25,000 cells/well (16HBEs) or 15,000 cells/well (HDFs) with 100 µL of feeding media and incubated over 24 hours at 37 °C, 5% CO2, and 100% RH. The cells were then washed once with sterile phosphate buffered saline (PBS, pH = 7.4) and 100 µL of SCCs or the Ag-PPE-SCKs at various concentrations in OPTI-MEM® (Invitrogen) with 3.3% (v/v) DMSO, or without for the Ag-PPE-SCKs, was added to the cells. Next, 10 µL of alamarBlue® (Invitrogen) was added to each well and the plates were re-incubated for 24 h. Finally, the plates were measured for optical density at 570 and 600 nm with a spectrophotometer (POLARstar Omega, BMG Labtech or Cytation 5, BioTek). Untreated cells and media only (with alamarBlue®) were used as controls. […] The relative viabilities of the cells were determined as per the manufacturer’s instructions and using GraphPad Prism® software to generate a non-linear curve fit and interpolate the in vitro LD50 for each SCC. This assay was performed with three technical replicates for each SCC and Ag-PPE-SCK dose and biological replicates were performed in quadruplicate on separate days (3 technical replicates × 4 biological replicates = 12 total replicates). The DEM for each SCC was determined as the ratio of the molar LD50 and MBC concentrations (LD50/MBC).
(In general: The colour change of resazurin is a common sign of viable cells or microbes.)

For data set [2], the system named is Pseudomonas aeruginosa (PA M57-15). Nature of the data set: Histology of lungs of infected, treated mice. It counts as in vivo, mouse. To be noted: lungs at 25 hours after three treatments; for aggregate histological score: inflammation, consolidation, congestion/haemorrhage each 0 to +3, sham +6. The procedure:
Male C57BL/6 J mice were infected with PA M57-15 and treated with the four SCCs or vehicle as described above. At 25 hours, following three treatments, the mice were humanely euthanized by cervical dislocation following anesthetization by a ketamine/xylazine cocktail. Lungs of the mice were harvested aseptically, the lung sections fixed in 10% formalin for a minimum of 12 hours, and embedded in paraffin using an automated rapid tissue processor (Peloris-Leica Microsystems Inc., Buffalo Grove, IL). Two 5-micron thick sections were obtained from each paraffin block and stained with Haematoxylin/Eosin on an automated stainer (Symphony, Ventana-Roche, Tucson, AZ). Sections were evaluated by light microscopy (Nikon Eclipse-Ni, Nikon Instruments, Inc., Americas), scored using a semi-quantitative scale from 0 (negative), +1 (mild), +2 (moderate), and +3 (severe) for the following parameters: inflammation, consolidation, congestion/haemorrhage, and an aggregate score was calculated for each group. The presence of bacterial colonies if any was also noted. A pathologist, who was blinded to the treatment received by the mice, performed the examination and analysis of tissues. A total of two mice were used in each treatment group.

The test system of data set [3] is primary human dermal fibroblasts (HDFs). Nature of the data set: alamarBlue cytotoxicity assay against HDFs (in vitro LD50). To be noted: 24 h. It counts as cell-based. The procedure: as §1, §2
Data set [4] relates to P. aeruginosa strain PA M57-15. Nature of the data set: MIC and MBC determination, standard CLSI protocol with minor modifications. It counts as cell-based, Pseudomonas aeruginosa. On the procedure:
Pseudomonas aeruginosa isolate PA M57-15 was generously donated by Thomas Ferkol, M.D. (Washington University, St. Louis, MO). PA M57-15 was struck from frozen glycerol stocks on to tryptic soy agar plates (Remel) and incubated overnight at 37 °C in a warm room until individual colonies formed. A single colony was inoculated in 10 mL Mueller-Hinton (MH) broth, grown in a shaking incubator (37 °C, 200 rpm) to log phase (OD650 = 0.4), and utilized for experiments after appropriate dilutions. PA M57-15 bacterial suspension at OD650 = 0.4 corresponds to 2–3 × 10^8 CFU/mL, as verified by repeated serial dilution and plating.
The MIC and MBC determinations of the various SCCs and the Ag-PPE-SCK NPs were performed using a standard CLSI protocol with minor modifications. A mucoid clinical isolate of Pseudomonas aeruginosa, PA M57-15, from a cystic fibrosis patient was utilized, because we have previously studied this strain in murine models of P. aeruginosa lung infection[21],[29],[30]. PA M57-15 grown to log phase as previously described was diluted to a density of 10^6 CFU/mL in MH and added 1:1 in a 96-well plate with different concentrations of SCCs dissolved in 95:5 (v:v) DH2O:DMSO solution or the Ag-PPE-SCKs suspended in DH2O. The final SCC concentrations tested were 0.25, 0.5, 0.75, 1, 1.5, and 2 μg/mL and were increased in two-fold increments from 2 μg/mL to 32 μg/mL. The final DMSO concentrations in the wells was 2.5% (v/v) and had no impact on bacterial growth, as determined by growth in the positive control wells. […] Contents of these clear wells were streaked on agar plates and incubated for an additional 24 hours at 37 °C. […] Three technical replicates were employed for each experiment and a total of three biological replicates were performed on separate days (3 technical replicates x 3 biological replicates = 9 total replicates) to account for day-to-day variations in media, bacterial growth, compound dilutions, as well as other experimental conditions. The MIC and MBC values that were identical for at least two readings out of the three are reported.

Take `CC(=O)[O][Ag][c]1n(C)c2c(c(=O)n(C)c(=O)n2C)[n+]1C` [SCC1]: the figures for the LD50 in data set [1] and in data set [3] were 297 µM and 25.8 µM, respectively. For the same molecule, the “bacterial colonies in lung tissue” value in data set [2] is given as “complete absence of bacterial colonies”. The aggregate histological score entry in data set [2] is “+4”. In addition, the MBC in data set [4] (PA M57-15) is 1.5 mg/L; in data set [4] (PA M57-15, molar basis), 4.0 µM and 4 µM. Also, the MIC in data set [4] (PA M57-15) is 0.75 mg/L; in data set [4] (PA M57-15, molar basis) it was 2.0 µM and 2 µM.

With `CC(=O)[O][Ag][c]1n(CCCO)c(Cl)c(Cl)[n+]1C` [SCC22], the values for the LD50 in data set [1] and in data set [3] were 224 µM and 22.7 µM, respectively. Besides, in data set [2], the “bacterial colonies in lung tissue” value is given as “No bacterial colonies were identified”. Also, the aggregate histological score result in data set [2] is given as “+3”. The MBC in data set [4] (PA M57-15) was determined as 1.0 mg/L; in data set [4] (PA M57-15, molar basis), 2.7 µM. Further, the MIC in data set [4] (PA M57-15) is 0.75 mg/L; in data set [4] (PA M57-15, molar basis), 2.0 µM and 2 µM.

`CC(=O)[O][Ag][c]1n(Cc2ccc3ccccc3c2)c(Cl)c(Cl)[n+]1Cc1ccc2ccccc2c1` [SCC23] gave an LD50 in data set [1] of 14.7 µM. For the same molecule, in data set [2], the “bacterial colonies in lung tissue” value is recorded as “bacterial colonies were not identified” and the aggregate histological score entry is “+4”. Further, in data set [3], the LD50 turned out to be 14.2 µM. In data set [4] (PA M57-15), this molecule showed an MBC of 1.0 mg/L and an MIC of 0.50 mg/L. In data set [4] (PA M57-15, molar basis), this molecule came in with an MBC of 1.7 µM and an MIC of 0.86 µM.

`CCCCCCn1c(Cl)c(Cl)[n+](Cc2ccc3ccccc3c2)[c]1[Ag][O]C(C)=O` [SCC28]: the results for the LD50 in data set [1] and in data set [3] were 58.1 µM and 9.8 µM, respectively. Moreover, the “bacterial colonies in lung tissue” value in data set [2] was “bacterial colonies were not identified”. This molecule also yielded an aggregate histological score in data set [2] of 4. For the same molecule, the MBC is reported as 1.0 mg/L in data set [4] (PA M57-15) and 1.9 µM in data set [4] (PA M57-15, molar basis). Further, the MIC in data set [4] (PA M57-15) is reported as 0.50 mg/L; in data set [4] (PA M57-15, molar basis), 0.95 µM.
